Reference: patent US11851681B2, “Cell preparation method” (KYOTO PREFECTURAL PUBLIC UNIVERSITY CORPORATION, priority 2015, dated 2023)
Entries after “also recorded” stand apart in the source; their conditions may differ.

Key:
HDF45, HDF69, HDF22 = settings: 4 μM in calcification induction medium; day 10 (ALP), day 15 (Alizarin Red S); FIG. 37, 38
From the text: (§1) It was washed 3 times with sterile distilled water.
as §1

[1] = tested on: Human normal skin-derived fibroblasts (HDFs); settings: 4 μM in adipocyte induction medium Day 1 to Day 8; day 14; FIG. 46
Description: Human normal skin-derived fibroblasts (HDFs) were suspended in a general medium (DMEM added with 10% FBS). […] The adipocyte induction medium is DMEM added with 1 nM T3, 1 μM Rosiglitazone, 0.5 mM 3-isobutyl-1-methylxanthine (IBMX), 0.5 μM dexamethasone, 1 μg/mL Insulin and 10% FBS. […] On day 14, the culture medium was removed by suction from each well, and washed with PBS(−). […] After washing 3 times with PBS(−), Blocking One was added, and the mixture was incubated at room temperature for 60 min. Anti-UCP-1 antibody (RD MAB6158) was added and the mixture was reacted for 2 hrs at room temperature, and washed 3 times with Wash buffer. CF488-conjugated anti-mouse Ig antibody (Biotum 20014) was added and the mixture was reacted for 2 hrs at room temperature, and washed 3 times with PBS(−). After nuclear staining with SlowFade Gold antifade reagent with DAPI manufactured by Lifetechnology, the cells were photographed with a fluorescence microscope at ×100 magnification.

[2] = tested on: Human Epidermal Keratinocyte; NHEK (AD); settings: CnT-PR medium, 1 μM or 10 μM; day 21; FIG. 56
[3] = tested on: Human normal skin-derived fibroblasts (HDFs); test: Real-time RT-PCR of UCP1, CIDEA, KCNK3, Example 41; assay type: cell-based; settings: ALK5 inhibitor II or LY2157299 (8 μM), Day 1 to Day 8; day 14; FIG. 45
Description: Human normal skin-derived fibroblasts (HDFs) were suspended in a general medium (DMEM added with 10% FBS). […] The adipocyte induction medium is DMEM added with 1 nM T3, 1 μM Rosiglitazone, 0.5 mM 3-isobutyl-1-methylxanthine (IBMX), 0.5 μM dexamethasone, 1 μg/mL Insulin and 10% FBS. Once every 2 days, the culture medium was exchanged with a fresh one, and culturing was performed from Day 1 to Day 8. Thereafter, from Day 9 to Day 14, the cells were cultured in an adipocyte induction medium free of ALK5 inhibitor II or LY2157299. On day 14, the culture medium was removed by suction from each well, washed with PBS(−) and total RNA was extracted from the cells by using RNA easy Mini Kit manufactured by Qiagen. cDNA was synthesized from the RNA by using Rever Tra Ace qPCR RT Master Mix. This cDNA was admixed with Real-time PCR Master Mix, primers specific to UCP-1 gene, CIDEA gene, KCNK3 gene or β actin gene and Taqman probe. qRT-PCR was performed using AB7300 Real-time PCR system. The mRNA level of UCP1 gene was quantified as a ratio to β-actin gene mRNA, and calculated with the value of fibroblast cultured in the general medium as 1.

[4] = tested on: human adipose derived stem cells; ADSC; settings: calcification induction medium added with ALK5 inhibitor II; day 19; FIG. 5
Description: (§2) The calcification induction medium is 10% FBS DMEM added with 50 μg/ml ascorbic acid, 10 mM β-glycerophosphate and 100 nM Dexamethasone. The culture medium was exchanged with a fresh one every 3-4 days, and culturing was performed until day 19.
(§3) On day 19, the culture medium was removed from each well by suction, washed with PBS(−), and fixed with 10% formalin. It was washed 3 times with sterile distilled water. Thereafter, Alizarin Red S staining solution was added, and the mixture was incubated at room temperature for 15 min.

[5] = tested on: human dermal fibroblasts; HDFs; settings: calcification induction medium added with ALK5 inhibitor II; day 19; FIG. 5
Description: as §2, §3

[6] = tested on: human dermal fibroblasts; HDFs; test: Real-time RT-PCR of AdipoQ, Example 14; assay type: cell-based; settings: D4476, SB431542, ALK5 Inhibitor II 2 μM, PD0325901 1 μM, in addition to T3 and Rosiglitazone; day 14; FIG. 14
Description: The concentrations of the additives are as follows: • T3: 1 nM • Rosiglitazone: 1 μM • D4476: 2 μM. • Pifithrin alpha [p53 inhibitor]: 5 μM • PD0325901: 1 μM • SB431542: 2 μM • ALK5 Inhibitor II: 2 μM.

[7] = tested on: Human normal skin-derived fibroblasts (HDFs); test: Alizarin Red S and ALP staining, absorbance, TGF-β pathway inhibitor panel, Examples 31-32; assay type: cell-based
Description: On day 21, the culture medium was removed from a part of the well, washed with PBS(-), and fixed with a fixative. It was washed 3 times with sterile distilled water. […] In the experiment of Example 31, the solution after staining with the Alizarin Red S staining solution was collected in a 96 well plate and the absorbance (OD 550 nm) was measured with an absorption spectrometer.

[8] = tested on: Human normal skin-derived fibroblasts (HDFs); test: Real-time RT-PCR of UCP1, four inhibitors, Example 39; assay type: cell-based
Description: The addition concentration of the compound was 4 μM, 8 μM, 12 μM or 16 μM. […] Thereafter, in Day 9-Day 14, culturing was performed in a medium free of ALK5 inhibitor II, LY2157299, SB431542, D4476.

[9] = tested on: human dermal fibroblasts; HDFs; test: Real-time RT-PCR of CIDEA, Example 13; assay type: cell-based; settings: compound 2 μM in addition to T3 1 nM and Rosiglitazone 1 μM, adipocyte induction medium; day 14; FIG. 13
Description: The concentrations of the additives are as follows: • T3: 1 nM • Rosiglitazone: 1 μM • D4476: 2 μM • Pifithrin alpha [p53 inhibitor]: 5 μM • SB431542: 2 μM • ALK5 Inhibitor II: 2 μM.

[10] = description, conditions not given

Cc1cccc(-c2n[nH]cc2-c2ccc3ncccc3n2)n1 [ALK5 inhibitor II, 2-(3-(6-Methylpyridin-2-yl)-1H-pyrazol-4-yl)-1,5-naphthyridine]
conversion of fibroblasts from different individuals to osteoblasts, ALP and Alizarin Red S staining (HDF45, HDF69, HDF22): are converted to osteoblasts | fibroblasts converted to brown adipocyte highly expressing UCP1 protein (UCP1 positive cells in DAPI positive cells) [1]: more than 90% | staining with anti-UCP1 antibody [1]: many cells were strongly stained with anti-UCP1 antibody | conversion of epidermal keratinocyte to urothelial cell, Uroplakin 1b and Uroplakin 3b mRNA [2]: converted human epidermal keratinocyte to urothelial cell expressing Uroplakin 1b gene and Uroplakin 3b gene | conversion of fibroblast to brown adipocyte, UCP1, CIDEA and KCNK3 mRNA [3]: converted fibroblast to brown adipocyte expressing UCP1 gene, CIDEA gene and KCNK3 gene; also recorded: more strongly induced | conversion to osteoblast, Alizarin Red S staining and OD550, fat-derived mesenchymal stem cell [4]: converted to osteoblast having calcified bone matrix production ability | conversion to osteoblast, Alizarin Red S staining and OD550, human fibroblast [5]: converted to osteoblast having calcified bone matrix production ability | conversion of fibroblast to brown adipocytes, AdipoQ mRNA [6]: converted fibroblast to brown adipocytes expressing mRNA of AdipoQ gene | conversion of human fibroblast to osteoblast, Alizarin Red S / ALP staining and absorbance ([7]; calcification induction medium, compounds 1 or 4 μM, TGF-β 10 ng/ml, day 21, FIG. 35, 36, listed as ALK5 i II): can strongly convert human fibroblast to osteoblast; also recorded: can most strongly convert human fibroblast to osteoblast | efficiency in converting fibroblast to osteoblast (summary statement) [7, 10]: highly efficient in converting fibroblast to osteoblast | conversion of fibroblast to brown adipocyte, UCP1 mRNA ([8]; 4 μM, 8 μM, 12 μM or 16 μM in adipocyte induction medium Day 1 to Day 8, then compound-free to day 14, FIG. 43): converted fibroblast to brown adipocyte strongly expressing UCP1 gene; also recorded: most strongly induced | efficiency in converting fibroblast to brown adipocyte (summary statement) [8, 10]: highly efficient in converting fibroblast to brown adipocyte | conversion of fibroblast to brown adipocytes, CIDEA mRNA [9]: converted fibroblast to brown adipocytes expressing mRNA of CIDEA gene
